# According to publication PMC8868346, “Novel Series of Dual NRF2 Inducers and Selective MAO-B Inhibitors for the Treatment of Parkinson’s Disease” (Antioxidants, 2022):
# Where two headings read alike, the source gives them in different places.
# Tests used:
# NRF2 = NRF2 induction, luciferase activity in AREc32 reporter cells; format: cell-based, human; details: for EC50: Homo sapiens, 24 h, concentration required to double luciferase activity compared to basal, read-out: CD (µM) NRF2 Induction; for fold potentiation of NRF2 induction compared to the corresponding -OMe derivative: 11, 12 vs 10, 14, 15 vs 13
# Description: Cells were used from the third to twelfth passage.
# AREc32 cells were stably transfected with the plasmid pGL-8xARE that implements 8 copies of the antioxidant response element (ARE) sequences followed by luciferase reporter gen. Therefore, NRF2 induction can be related to the activation of ARE sequences by measuring luciferase activity in terms of luminescence production. For NRF2 induction experiments, cells were plated in 96 white flat bottom well plates (20,000 cells/well). After 24 h, cells were incubated with selected compounds at the desired concentrations in duplicates for 24 h. The Luciferase Assay System (Promega E1500) was used according to provider protocol and luminescence was quantified in an Orion II microplate luminometer (Berthold, Germany). Fold induction of luciferase activity was normalized to basal conditions. Data were expressed as CD values, which means the concentration needed to duplicate the luciferase activity compared to basal conditions. CD values were calculated from dose–response curves fitted by non-linear regression for each compound after logarithmic transformation of the data using GraphPad Prism 8.0 software.
# hrMAO-A = biological target: T1, hrMAO-A (Homo sapiens, UniProt P21397); experiment: Inhibition of monoamine oxidase A (Amplex UltraRed, tyramine); format: biochemical
# T1 construct: purchased Sigma–Aldrich
# T1 sequence (P21397 1-527): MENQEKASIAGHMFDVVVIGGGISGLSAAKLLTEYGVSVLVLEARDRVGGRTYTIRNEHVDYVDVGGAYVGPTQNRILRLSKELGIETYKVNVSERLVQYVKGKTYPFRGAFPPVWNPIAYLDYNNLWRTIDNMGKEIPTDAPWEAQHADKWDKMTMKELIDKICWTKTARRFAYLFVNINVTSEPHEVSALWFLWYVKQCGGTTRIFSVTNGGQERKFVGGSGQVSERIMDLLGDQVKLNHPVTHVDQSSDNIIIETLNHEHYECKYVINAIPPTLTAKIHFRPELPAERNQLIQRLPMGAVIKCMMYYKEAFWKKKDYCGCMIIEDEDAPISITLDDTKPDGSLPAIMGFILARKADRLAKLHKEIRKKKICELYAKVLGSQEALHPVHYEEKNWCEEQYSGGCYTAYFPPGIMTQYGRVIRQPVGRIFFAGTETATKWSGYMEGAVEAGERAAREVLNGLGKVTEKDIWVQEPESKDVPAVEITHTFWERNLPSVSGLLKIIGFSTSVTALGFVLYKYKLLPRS
# [1] = Oxygen radical absorbance capacity (ORAC) assay; details: Trolox equivalents; AAPH, fluorescein
# Description: The ORAC test was performed to evaluate the oxygen free radical scavenger capacity of the compounds. […] Compounds at desired concentrations (0.03, 0.1, 0.3, 1, 3, and 10 µM) were diluted in phosphate-buffered saline (PBS; 10 mM, pH 7.4) at 37 °C and placed in a 96 black flat bottom well plate. […] A fluorescence measurement was done first to determine the basal signal. Then, 25 µL of 2, 2′-azobis-amidinopropane dihydrochloride (AAPH) (12 mM final concentration) was quickly added. All samples were measured in duplicates in three different experiments. […] Results were expressed in terms of Trolox equivalents (T.eq.), obtained by plotting net AUC versus compound concentration, then performing linear regression and normalizing slopes of the compounds considering Trolox as reference.
# IL-1β = IL-1β levels by ELISA in LPS stimulated primary mixed glial cultures; format: cell-based, rat; details: compound 10 μM; LPS 1 µg/mL 18 h
# Description: Cells were cultured for 7–10 days before treatment.
# Primary glial cells were pre-treated with compounds at the desired concentration for 24 h. Then, treatments were removed and glial cells were incubated with lipopolysaccharide (LPS, 1 μg/mL; Sigma–Aldrich, Spain) in the presence of each compound at the desired concentration for 18 h. Nitrite production was then assessed by modified Griess assay. Briefly, 150 µL of each sample was mixed with 75 µL of 4,4′-diamino-diphenylsulfone (Dapsone) and 75 µL of N-(1-naphthyl)ethylenediamine (Neda). The mixture was incubated at room temperature for 5 min. […] Data were normalized to basal conditions, setting this value as 100% of nitrite production. EC50 values were calculated from dose–response curves obtained from representing percentage of nitrites reduction vs. compound concentration.
# Supernatants obtained from mixed primary glial cell cultures were used to determine IL-1β levels by quantitative ELISA kits (Preprotech, R&D Systems-bioNova, Madrid, Spain) following the manufacturer’s instructions. Commercial solution of IL-1β was used to generate a standard curve for sample quantification. Absorbance was measured in a microplate reader SPECTROstar Nano (BMG Labtech) at 405 with 650 nm correction.
# SH-SY5Y cells [2] = experiment: Neuroprotection in SH-SY5Y against rotenone/oligomycin A (MTT); format: cell-based, human; details: compound 0.1 µM, 24 h pre- and 24 h co-incubation
# Description: (§1) Cells were seeded at a density of 60,000 cells/well in 96-well transparent plates for 24 h. Then cells were pre-incubated with the corresponding compound at 0.1 μM. After 24 h, the medium was removed and replaced with 1% (v/v) FBS media containing the corresponding compound at 0.1 µM and the selected toxic stimuli, namely a mixture of rotenone and oligomycin A (R/O; 30/10 μM, respectively; Sigma–Aldrich, Spain) or 6-hydroxydopamine (100 µM; Sigma–Aldrich, Spain). […].
# SH-SY5Y cells [3] = experiment: Neuroprotection in SH-SY5Y against 6-hydroxydopamine (MTT); format: cell-based, human; details: 6-OHDA 100 µM; compound 0.1 µM, 24 h pre- and 24 h co-incubation
# Description: as §1
# [4] = tested on: Mixed primary glial cultures; experiment: Cytotoxicity in mixed primary glial cultures (MTT); details: MTT reduction
# Description: Mixed primary glial cultures were obtained from cerebral cortex of 2–5-day-old Sprague–Dawley rats. Blood vessels and meninges were first removed in Hank’s balanced salt solution (HBSS) and then forebrains were dissociated in DMEM/F12 medium. After mechanical dissociation, filtering, and centrifugation at 800 rpm for 10 min, cells were plated at a density of 30,000 cells/well in DMEM/F12 medium with 20% (v/v) FBS and 1% penicillin/streptomycin (10,000 units). […] After 5 days, medium was substituted by DMEM/F12 medium with 10% (v/v) FBS. Cells were cultured for 7–10 days before treatment.
# Basal absorbance was set to 100% and results were normalized to basal conditions.
# Cytotoxicity. LD50 values in several cell cultures employed
# Table S2. Cytotoxicity elicited by 10-18 compounds in SH-SY5Y, AREc32 and mixed pr imary glial cultures. Viability was measured as MTT reduction in presence of increasing concentrations of der ivatives. LD50 values were calcula ted from dose-response curves. Data are expr essed as mean ± SEM of at least 3 independent experiments.
# 1.3. PAMPA control compounds (BBB permeability)
# Table S3. Pr ediction of the BBB passive permeability of control compounds
# [5] = 30 min pre-incubation, 37 °C, read-out: IC50 MAO-A
Structure (SMILES),EC50 (NRF2; AREc32 cells) [µM],IC50 (hrMAO-A) [µM],ORAC (T. eq.) [1] [T. eq.],IL-1β Levels % Reduction (10 μM) (IL-1β) [%],R/O (30/10 µM) Protection (%) (SH-SY5Y cells [2]),6-OHDA Protection (%) (SH-SY5Y cells [3]),LD50 (µM) Mixed primary glial cultures [4] [µM],fold potentiation of NRF2 induction compared to the corresponding -OMe derivative (NRF2) [fold],"luciferase activity (NRF2 induction) dose–response (NRF2; AREc32 cells, 24 h, 3, 5, and 10 µM)",IC50 (hrMAO-A; [5]) [µM]
"C#CCNCCc1c[nH]c2ccc(OC)cc12 [Compound 10, N-(2-(5-Methoxy-1H-indol-3-yl)ethyl)prop-2-yn-1-amine]",20.9 ± 2.2,0.826 ± 0.11,2.47 ± 0.13,68.4 ± 4.9,44.6,83.5,> 30,,,
"C#CCN(CC#C)CCc1c[nH]c2ccc(OC)cc12 [Compound 13, N-(2-(5-Methoxy-1H-indol-3-yl)ethyl)-N-(prop-2-yn-1-yl)prop-2-yn-1-amine]",13.9 ± 1.5,> 100,2.09 ± 0.11,67.4 ± 5.80,42.7,87.4,> 30,,,
"C#CCN(CC#C)CCc1c[nH]c2ccc(OC(=O)C=Cc3ccccc3)cc12 [Compound 14, 3-(2-(Di(prop-2-yn-1-yl)amino)ethyl)-1H-indol-5-yl Cinnamate]",5.07 ± 0.23,,1.98 ± 0.15,41.1 ± 1.7,53.3,71.7,> 30,3,significantly increasing luciferase activity,56.6 ± 6.3
"C#CCN(CC#C)CCc1c[nH]c2ccc(OC(=O)/C=C/c3ccc(C)cc3)cc12 [Compound 15, 3-(2-(Di(prop-2-yn-1-yl)amino)ethyl)-1H-indol-5-yl-(E)-3-(p-tolyl) Acrylate]",5.76 ± 0.07,,1.74 ± 0.10,60.5 ± 3.50,36.4,41.5,> 30,3,,> 100
